# Values of other authors as cited in patent US6794359B2, “Vertebrate intestinal protein which absorbs cholesterol, its inhibitors and mehtod of identifying the same” (Aventis Pharma Deutschland GmbH, priority 2000, dated 2004).
# Where two headings read alike, the source gives them in different places.
# Columns and labels:
# [1] = system: intestinal cholesterol absorption; settings: humans
# [2] = system: intestinal cholesterol absorption; settings: rabbits
# [3] = system: intestinal cholesterol absorption; settings: rhesus monkeys
# [4] = system: intestinal cholesterol absorption; settings: hamsters
# [5] = system: intestinal cholesterol absorption; settings: dogs
smiles,measurement,setting,value
COc1ccc([C@@H]2[C@@H](CCCc3ccccc3)C(=O)N2c2ccc(OC)cc2)cc1 [SCH 48461],inhibition of intestinal cholesterol absorption,[1],very efficiently inhibits
same,inhibition of intestinal cholesterol absorption,[2],very efficiently inhibits
same,inhibition of intestinal cholesterol absorption,[3],very efficiently inhibits
same,inhibition of intestinal cholesterol absorption,[4],very efficiently inhibits
same,inhibition of intestinal cholesterol absorption,[5],very efficiently inhibits
CC[C@H](CC[C@@H](C)[C@H]1CC[C@H]2[C@@H]3CC=C4C[C@@H](O)CC[C@]4(C)[C@H]3CC[C@]12C)C(C)C [β-sitosterol],inhibition of cholesterol absorption,[1]; background statement,an inhibition of cholesterol absorption
O=C1[C@H](CC[C@H](O)c2ccc(F)cc2)[C@@H](c2ccc(O)cc2)N1c1ccc(F)cc1 [SCH 58235],increase of effect on direct comparison,[4]; direct comparison with SCH 48461,50 fold
